This assay relates to asthmatic mice. Description: Ovalbumin-induced asthma mouse model (BALF leukocyte counts, lung inflammation). The format is in vivo, BABL/c mice. To be noted: for percentage of eosinophils in BALF / percentage of macrophages in BALF / percentage of neutrophils in BALF / total number of leukocytes in BALF: intraperitoneal injection; for percentage of eosinophils in BALF / percentage of macrophages in BALF / percentage of neutrophils in BALF / total number of leukocytes in BALF / eosinophils in BALF: vs model control. An excerpt:
4. Effects of Compounds on Ovalbumin-Induced Asthma in Mouse and Rat Models
SPF-grade SD male rats (purchased from Zhejiang Academy of Medical Sciences, license number SCXK (Zhejiang) 2019-0002) with a body weight of 160-180 g; and SPF-grade female BABL/c mice (purchased from Zhejiang Weitong Lihua Experimental Animals Technology Co., Ltd., license number SCXK (Zhejiang) 2019-0001) with a body weight of 16-18 g were used. The above animals were raised by the Experimental Animal Center of Zhejiang Academy of Traditional Chinese Medicine.
Formulation of compound solution: compound was vortexed in a solvent system, dissolved by ultrasound, and prepared into a solution at a corresponding concentration, which was prepared just before use (the solvent system was composed of 5% Solutol HS 15, 5% DMSO and 90% physiological saline).
BABL/c mice or SD rats were randomly divided into: normal control group, model control group, dexamethasone group (0.72 mg/kg), and the respective test compound groups (one group for each dose), 10 mice in each group; 6 rats in each group.
Sensitization of mice: on the mornings of Day 0, Day 7, and Day 14, mice in the model control group and the respective drug administration groups were intraperitoneally injected with 0.2 ml of 10% OVA sensitizing solution (Yuanye Bio), and the normal control group was intraperitoneally injected with an equal volume of normal saline. In the afternoons of Day 7 and Day 14, mice in the model control group and the respective drug administration groups were intraperitoneally injected with 0.2 ml of 10% OVA (Sigma), and the normal control group was intraperitoneally injected with an equal volume of normal saline.
Mice: from Day 21, the normal control group and the model control group were not treated; the dexamethasone group and the respective test compound groups were intraperitoneally injected, 20 minutes before each challenge, with the corresponding drugs, injection volume: 0.1 ml/10 g, administered for 7 consecutive days; mice in the test compound-oral group were given the corresponding drugs by intragastric administration 30 minutes before the challenge; the test compound-atomization group or the dexamethasone-atomization group was given the corresponding drugs at different concentrations before challenge, 8 ml for each group, atomization for 30 minutes; the normal control group and the model control group were given no treatment. Administration was conducted for 7 consecutive days.
Mice: from Day 21, the mice in the model control group and the respective administration groups were placed in airtight containers in turn, and the challenging solution was atomized with an ultrasonic nebulizer (approximately 6-8 ml each time), twice a day, OVA challenging solution from Yuanye Shanghai was atomized in the morning, and OVA challenging solution from Sigma was atomized in the afternoon. Mice were challenged for 30 minutes per atomization, for 7 consecutive days. The normal control group was not treated. Mice in the model control group developing cyanosis of lips, accelerated breathing, unsteadiness during standing, nodding breathing, abdominal muscle cramps, etc. was deemed as a sign of success of the animal model.
24 hours after completion of the last challenge, the trachea of the mouse was exposed in front of the neck, a horizontal incision was made in the trachea with an ophthalmic scissor, and a 5 ml syringe-modified tracheal intubation needle was inserted, the left main bronchus was ligated, and the right main bronchus was intubated and tightened with surgical suture. Bronchoalveolar lavage was conducted 3 times with 0.3 ml normal saline, pumpback twice each time. The BALF was combined and collected in a 1.5 ml test tube, which was placed on ice or in a refrigerator at 4 degrees.
50 μl of the above BALF was taken, and 100 μl white blood cell counting diluent (2% iced acetic acid solution) was added thereto and mixed evenly therewith. […]

The structures appear in SMILES notation.

On to `N#Cc1ccc(NC2(C(=O)N3CCN(c4ccc(C(F)(F)F)cc4)CC3)CCCC2)cc1` [Compound 1, 4-((1-(4-(4-(trifluoromethyl)phenyl)piperazine-1-carbonyl)cyclopentyl)amino)benzonitrile], for which, under “P<0.01”, the “percentage of eosinophils in BALF” value is recorded as “decreased”, the “percentage of macrophages in BALF” value was “increased”, the “percentage of neutrophils in BALF” value is listed as “decreased” and the “total number of leukocytes in BALF” value is recorded as “decreased”. In addition, the “lung tissue inflammation area” value (oral administration, P<0.05) was “significantly reduced”. Moreover, where the note is “oral administration, P<0.01”, the “eosinophils in BALF” value is “significantly reduced”. Where the note is “spray inhalation, P>0.05”, the airway inflammation score entry was “decreasing trend, but not reaching a statistical significance”. Besides, the “lung tissue inflammation area” value (spray inhalation, respective dose groups, P<0.01, 0.05) is reported as “reduce the lung tissue inflammation area of asthmatic mice in a dose-dependent manner”. Besides, the “eosinophils in BALF” value (spray inhalation, respective dose groups, P<0.05, 0.01) is listed as “dose-dependent decrease”.

Take `CC(C)(C)C1CCN(C(=O)C2(Nc3ccc(C#N)cc3)CCCC2)CC1` [Compound 31, 4-((1-(4-(tert-butyl)piperidine-1-carbonyl)cyclopentyl)amino)benzonitrile]: where the note is “P<0.01”, the “percentage of eosinophils in BALF” value is recorded as “decreased”, the “percentage of macrophages in BALF” value is reported as “increased”, the “percentage of neutrophils in BALF” value is given as “decreased” and the “total number of leukocytes in BALF” value is listed as “decreased”.

(Values after patent US12391660B2, “Heteroaromatic acetamide derivative, and preparation and use thereof” (Hangzhou Westan Pharmaceutical Technology Co., Ltd, priority 2019, dated 2025).)
